From patent US20130315965A1, “HARMINE DERIVATIVES FOR PROMOTING BONE GROWTH” (OssiFi, Inc., priority 2012, published 2013)

Legend:
Sclerostin = molecular target: T1, Sclerostin (Homo sapiens, UniProt Q9BQB4); test: luciferase Wnt pathway activity assay (inhibition of sclerostin by restoration of Wnt signaling); type: cell-based; conditions: for identified as promoting bone growth (Wnt signaling / inhibition of sclerostin): human cells, luciferase Wnt pathway activity; for concentration at which compound inhibits sclerostin and restores normal Wnt activity (RLU): human embryonic cells, luciferase RLU, p<0.05
T1 construct: host or cells: human cells (reporter cells)
T1 sequence (Q9BQB4 24-213): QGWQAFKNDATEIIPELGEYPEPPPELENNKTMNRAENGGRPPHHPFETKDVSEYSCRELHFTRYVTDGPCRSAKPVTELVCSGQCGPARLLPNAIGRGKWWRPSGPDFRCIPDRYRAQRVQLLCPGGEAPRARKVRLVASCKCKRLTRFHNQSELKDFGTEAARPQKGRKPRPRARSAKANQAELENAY
Description: The Y axis represents Relative Light Units (RLU) which represents Wnt pathway signaling. Addition of Wnt (W) activates the Wnt pathway, while addition of Sclerostin (S) inhibits the Wnt pathway. Addition of Compound 1 inhibits sclerostin and restores normal Wnt activity at 3 μM. Asterisks represent statistically significant p<0.05.
The Y axis represents Relative Light Units (RLU) which represents Wnt pathway signaling. Addition of Wnt (W) activates the Wnt pathway, while addition of Sclerostin (S) inhibits the Wnt pathway. Addition of Compound 2 inhibits sclerostin and restores normal Wnt activity at 10 μM. Asterisks represent statistically significant p<0.05.
Briefly, human cells are treated with a predetermined dose of a candidate compound for a complete dosing schedule. Control vehicle treated cells are treated with a control solution, preferably a non-irritating buffer solution or other carrier. Once the dosing schedule has been completed, both test and control assays are examined for luciferase Wnt pathway activity to determine the quantity of Wnt signaling and thus inhibition of sclerostin.
Bars marked with a double asterisk indicate a significant difference as compared to S, but not as compared to W. Concentrations are indicated along the X axis in micromolar values.
Concentrations are indicated along the X axis in micromolar values.

osteocalcin (OCN) = test: Bone formation assay: osteocalcin (OCN) ELISA in cells treated with sclerostin and compound; type: cell-based, human
Text: Bone formation can be assayed in vitro or in vivo using a serum marker for bone formation, osteocalcin (OCN). OCN is commercially available, e.g., from Biomedical Technologies, Inc. (Stoughton, Mass.). In one exemplary assay, using the manufacturer's protocol for the mouse osteocalcin EIA kit (described at http://www.btiinc.com/page/cata2/html#mouse_osteocalcin) bone formation in cells such as MC3T3 osteoblast cells can be assayed by measuring the concentration of OCN. An ELISA assay followed by spectrophotometer optical density (OD) readings to measure the concentration of OCN is used to detect the level of OCN secreted from cells, e.g., cells treated with a vehicle control, a sclerostin control, or with a combination of sclerostin and a compound as described herein. In some embodiments, the cells are treated with increasing doses of the control or compound.
Compound 2 was added in increasing amounts (0.13 μM-100 μM) with sclerostin at 1/8 volume.

Row | Compound | identified as promoting bone growth (Wnt signaling / inhibition of sclerostin) (Sclerostin) | concentration at which compound inhibits sclerostin and restores normal Wnt activity (RLU) (Sclerostin) | effect on OCN induction blocked by sclerostin (osteocalcin (OCN); 0.13 μM-100 μM compound with sclerostin at 1/8 volume) | stimulation of bone formation marker OCN versus vehicle-treated cells with No Sclerostin (NS) (osteocalcin (OCN); 20 μM compound with Sclerostin at 1/8 volume)
1 | Cc1nc(O)cc2c1[nH]c1ccccc12 [Compound 1, 3-hydroxy-1-methyl-9H-pyrido[3,4-b]indole] | identified as promoting bone growth | 3 µM |  | 
2 | COc1ccc(-c2nccc3c2[nH]c2ccccc23)cc1 [Compound 2, 1-(4-methoxyphenyl)-9H-pyrido[3,4-b]indole] | identified as promoting bone growth | 10 µM | restoration of OCN activity that was blocked by sclerostin | stimulation of OCN well over that of the vehicle-treated cells
